test system: A498; assay: Cell panel screen (CellTiter-Glo); format: cell-based, human; conditions: A498 (listed under Lung), 20 micromolar, 72 hrs
How it was run: (§1)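 ATCC lines in supplier media with 10% FBS, seeded and cultured overnight at 37° C., then exposed to compound at 20 μM final for 72 h. CellTiter-Glo luminescence; % growth inhibition relative to DMSO-treated controls after subtracting cell-free background.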

Structure (SMILES) | Percent Inhibition [%]
COc1c(CC=C(C)C)c(O)c2c(=O)c3ccc(O)c(O)c3oc2c1CC=C(C)C [gl-9] | 86

test system: J82; assay: Cell panel screen (CellTiter-Glo); format: cell-based, human; conditions: J82 (Urinary bladder), 20 micromolar, 72 hrs
How it was run: as §1

Structure (SMILES) | Percent Inhibition [%]
COc1c(CC=C(C)C)c(O)c2c(=O)c3ccc(O)c(O)c3oc2c1CC=C(C)C [gl-9] | 99

test system: HPAF-II; assay: Cell panel screen (CellTiter-Glo); format: cell-based, human; conditions: HPAF-II (Pancreas), 20 micromolar, 72 hrs
How it was run: as §1

Structure (SMILES) | Percent Inhibition [%]
COc1c(CC=C(C)C)c(O)c2c(=O)c3ccc(O)c(O)c3oc2c1CC=C(C)C [gl-9] | 85

test system: NCI-H2405; assay: Cell panel screen (CellTiter-Glo); format: cell-based, human; conditions: NCI-H2405 (Lung), 20 micromolar, 72 hrs
How it was run: as §1

Structure (SMILES) | Percent Inhibition [%]
COc1c(CC=C(C)C)c(O)c2c(=O)c3ccc(O)c(O)c3oc2c1CC=C(C)C [gl-9] | 93

test system: NCI-H1623; assay: Cell panel screen (CellTiter-Glo); format: cell-based, human; conditions: NCI-H1623 (Lung), 20 micromolar, 72 hrs
How it was run: as §1

Structure (SMILES) | Percent Inhibition [%]
COc1c(CC=C(C)C)c(O)c2c(=O)c3ccc(O)c(O)c3oc2c1CC=C(C)C [gl-9] | 85

test system: A704; assay: Cell panel screen (CellTiter-Glo); format: cell-based, human; conditions: A704 (Kidney), 20 micromolar, 72 hrs
How it was run: as §1

Structure (SMILES) | Percent Inhibition [%]
COc1c(CC=C(C)C)c(O)c2c(=O)c3ccc(O)c(O)c3oc2c1CC=C(C)C [gl-9] | 88

test system: HCC1395; assay: Cell panel screen (CellTiter-Glo); format: cell-based, human; conditions: HCC1395 (Breast), 20 micromolar, 72 hrs
How it was run: as §1

Structure (SMILES) | Percent Inhibition [%]
COc1c(CC=C(C)C)c(O)c2c(=O)c3ccc(O)c(O)c3oc2c1CC=C(C)C [gl-9] | 98

test system: C3A; assay: Cell panel screen (CellTiter-Glo); format: cell-based, human; conditions: C3A (Liver), 20 micromolar, 72 hrs
How it was run: as §1

Structure (SMILES) | Percent Inhibition [%]
COc1c(CC=C(C)C)c(O)c2c(=O)c3ccc(O)c(O)c3oc2c1CC=C(C)C [gl-9] | 77

test system: M059J; assay: Cell panel screen (CellTiter-Glo); format: cell-based, human; conditions: M059J (Brain), 20 micromolar, 72 hrs
How it was run: as §1

Structure (SMILES) | Percent Inhibition [%]
COc1c(CC=C(C)C)c(O)c2c(=O)c3ccc(O)c(O)c3oc2c1CC=C(C)C [gl-9] | 92

test system: NCI-H2347; assay: Cell panel screen (CellTiter-Glo); format: cell-based, human; conditions: NCI-H2347 (Lung), 20 micromolar, 72 hrs
How it was run: as §1

Structure (SMILES) | Percent Inhibition [%]
COc1c(CC=C(C)C)c(O)c2c(=O)c3ccc(O)c(O)c3oc2c1CC=C(C)C [gl-9] | 82

test system: CW-2; assay: Cell panel screen (CellTiter-Glo); format: cell-based, human; conditions: CW-2 (Colon), 20 micromolar, 72 hrs
How it was run: as §1

Structure (SMILES) | Percent Inhibition [%]
COc1c(CC=C(C)C)c(O)c2c(=O)c3ccc(O)c(O)c3oc2c1CC=C(C)C [gl-9] | 99

test system: T47D; assay: Cell panel screen (CellTiter-Glo); format: cell-based, human; conditions: T47D (Breast), 20 micromolar, 72 hrs
How it was run: as §1

Structure (SMILES) | Percent Inhibition [%]
COc1c(CC=C(C)C)c(O)c2c(=O)c3ccc(O)c(O)c3oc2c1CC=C(C)C [gl-9] | 90

test system: CCF-STTG1; assay: Cell panel screen (CellTiter-Glo); format: cell-based, human; conditions: CCF-STTG1 (Brain), 20 micromolar, 72 hrs
How it was run: as §1

Structure (SMILES) | Percent Inhibition [%]
COc1c(CC=C(C)C)c(O)c2c(=O)c3ccc(O)c(O)c3oc2c1CC=C(C)C [gl-9] | 92

test system: RL95; assay: Cell panel screen (CellTiter-Glo); format: cell-based, human; conditions: RL95 (Uterus), 20 micromolar, 72 hrs
How it was run: as §1

Structure (SMILES) | Percent Inhibition [%]
COc1c(CC=C(C)C)c(O)c2c(=O)c3ccc(O)c(O)c3oc2c1CC=C(C)C [gl-9] | 98

test system: HCC1569; assay: Cell panel screen (CellTiter-Glo); format: cell-based, human; conditions: HCC1569 (Breast), 20 micromolar, 72 hrs
How it was run: as §1

Structure (SMILES) | Percent Inhibition [%]
COc1c(CC=C(C)C)c(O)c2c(=O)c3ccc(O)c(O)c3oc2c1CC=C(C)C [gl-9] | 93

test system: HT-1197; assay: Cell panel screen (CellTiter-Glo); format: cell-based, human; conditions: HT-1197 (Urinary bladder), 20 micromolar, 72 hrs
How it was run: as §1

Structure (SMILES) | Percent Inhibition [%]
COc1c(CC=C(C)C)c(O)c2c(=O)c3ccc(O)c(O)c3oc2c1CC=C(C)C [gl-9] | 97

test system: ZR-75-30; assay: Cell panel screen (CellTiter-Glo); format: cell-based, human; conditions: ZR-75-30 (Breast), 20 micromolar, 72 hrs
How it was run: as §1

Structure (SMILES) | Percent Inhibition [%]
COc1c(CC=C(C)C)c(O)c2c(=O)c3ccc(O)c(O)c3oc2c1CC=C(C)C [gl-9] | 99

test system: NCI-H1694; assay: Cell panel screen (CellTiter-Glo); format: cell-based, human; conditions: NCI-H1694 (Lung), 20 micromolar, 72 hrs
How it was run: as §1

Structure (SMILES) | Percent Inhibition [%]
COc1c(CC=C(C)C)c(O)c2c(=O)c3ccc(O)c(O)c3oc2c1CC=C(C)C [gl-9] | 100

test system: SW13; assay: Cell panel screen (CellTiter-Glo); format: cell-based, human; conditions: SW13 (Adrenal gland), 20 micromolar, 72 hrs
How it was run: as §1

Structure (SMILES) | Percent Inhibition [%]
COc1c(CC=C(C)C)c(O)c2c(=O)c3ccc(O)c(O)c3oc2c1CC=C(C)C [gl-9] | 99

test system: Panc 03.27; assay: Cell panel screen (CellTiter-Glo); format: cell-based, human; conditions: Panc 03.27 (Pancreas), 20 micromolar, 72 hrs
How it was run: as §1

Structure (SMILES) | Percent Inhibition [%]
COc1c(CC=C(C)C)c(O)c2c(=O)c3ccc(O)c(O)c3oc2c1CC=C(C)C [gl-9] | 92

test system: C8166; assay: Cell panel screen (CellTiter-Glo); format: cell-based, human; conditions: C8166 (Leukemia), 20 micromolar, 72 hrs
How it was run: as §1

Structure (SMILES) | Percent Inhibition [%]
COc1c(CC=C(C)C)c(O)c2c(=O)c3ccc(O)c(O)c3oc2c1CC=C(C)C [gl-9] | 96

test system: BT-474; assay: Cell panel screen (CellTiter-Glo); format: cell-based, human; conditions: BT-474 (Breast), 20 micromolar, 72 hrs
How it was run: as §1

Structure (SMILES) | Percent Inhibition [%]
COc1c(CC=C(C)C)c(O)c2c(=O)c3ccc(O)c(O)c3oc2c1CC=C(C)C [gl-9] | 94

test system: NCI-H1770; assay: Cell panel screen (CellTiter-Glo); format: cell-based, human; conditions: NCI-H1770 (Lung), 20 micromolar, 72 hrs
How it was run: as §1

Structure (SMILES) | Percent Inhibition [%]
COc1c(CC=C(C)C)c(O)c2c(=O)c3ccc(O)c(O)c3oc2c1CC=C(C)C [gl-9] | 93

test system: MSTO-211-H; assay: Cell panel screen (CellTiter-Glo); format: cell-based, human; conditions: MSTO-211-H (Lung), 20 micromolar, 72 hrs
How it was run: as §1

Structure (SMILES) | Percent Inhibition [%]
COc1c(CC=C(C)C)c(O)c2c(=O)c3ccc(O)c(O)c3oc2c1CC=C(C)C [gl-9] | 98

test system: Colo 205; assay: Cell panel screen (CellTiter-Glo); format: cell-based, human; conditions: Colo 205, 20 micromolar, 72 hrs
How it was run: as §1

Structure (SMILES) | Percent Inhibition [%]
COc1c(CC=C(C)C)c(O)c2c(=O)c3ccc(O)c(O)c3oc2c1CC=C(C)C [gl-9] | 97

test system: HEC-1-A; assay: Cell panel screen (CellTiter-Glo); format: cell-based, human; conditions: HEC-1-A (Uterus), 20 micromolar, 72 hrs
How it was run: as §1

Structure (SMILES) | Percent Inhibition [%]
COc1c(CC=C(C)C)c(O)c2c(=O)c3ccc(O)c(O)c3oc2c1CC=C(C)C [gl-9] | 85

test system: Bel-7402; assay: Cell panel screen (CellTiter-Glo); format: cell-based, human; conditions: Bel-7402 (Liver), 20 micromolar, 72 hrs
How it was run: as §1

Structure (SMILES) | Percent Inhibition [%]
COc1c(CC=C(C)C)c(O)c2c(=O)c3ccc(O)c(O)c3oc2c1CC=C(C)C [gl-9] | 96

test system: BT-549; assay: Cell panel screen (CellTiter-Glo); format: cell-based, human; conditions: BT-549 (Breast), 20 micromolar, 72 hrs
How it was run: as §1

Structure (SMILES) | Percent Inhibition [%]
COc1c(CC=C(C)C)c(O)c2c(=O)c3ccc(O)c(O)c3oc2c1CC=C(C)C [gl-9] | 96

test system: NCI-H524; assay: Cell panel screen (CellTiter-Glo); format: cell-based, human; conditions: NCI-H524 (Lung), 20 micromolar, 72 hrs
How it was run: as §1

Structure (SMILES) | Percent Inhibition [%]
COc1c(CC=C(C)C)c(O)c2c(=O)c3ccc(O)c(O)c3oc2c1CC=C(C)C [gl-9] | 99

test system: HGC-27; assay: Cell panel screen (CellTiter-Glo); format: cell-based, human; conditions: HGC-27 (Stomach), 20 micromolar, 72 hrs
How it was run: as §1

Structure (SMILES) | Percent Inhibition [%]
COc1c(CC=C(C)C)c(O)c2c(=O)c3ccc(O)c(O)c3oc2c1CC=C(C)C [gl-9] | 97

test system: ChaGo-K-1; assay: Cell panel screen (CellTiter-Glo); format: cell-based, human; conditions: ChaGo-K-1 (Lung), 20 micromolar, 72 hrs
How it was run: as §1

Structure (SMILES) | Percent Inhibition [%]
COc1c(CC=C(C)C)c(O)c2c(=O)c3ccc(O)c(O)c3oc2c1CC=C(C)C [gl-9] | 97

test system: TCCSUP; assay: Cell panel screen (CellTiter-Glo); format: cell-based, human; conditions: TCCSUP (Urinary bladder), 20 micromolar, 72 hrs
How it was run: as §1

Structure (SMILES) | Percent Inhibition [%]
COc1c(CC=C(C)C)c(O)c2c(=O)c3ccc(O)c(O)c3oc2c1CC=C(C)C [gl-9] | 96

test system: NCI-H28; assay: Cell panel screen (CellTiter-Glo); format: cell-based, human; conditions: NCI-H28 (Lung), 20 micromolar, 72 hrs
How it was run: as §1

Structure (SMILES) | Percent Inhibition [%]
COc1c(CC=C(C)C)c(O)c2c(=O)c3ccc(O)c(O)c3oc2c1CC=C(C)C [gl-9] | 86

test system: HCC1937; assay: Cell panel screen (CellTiter-Glo); format: cell-based, human; conditions: HCC1937 (Breast), 20 micromolar, 72 hrs
How it was run: as §1

Structure (SMILES) | Percent Inhibition [%]
COc1c(CC=C(C)C)c(O)c2c(=O)c3ccc(O)c(O)c3oc2c1CC=C(C)C [gl-9] | 94

test system: HCC1599; assay: Cell panel screen (CellTiter-Glo); format: cell-based, human; conditions: HCC1599 (Breast), 20 micromolar, 72 hrs
How it was run: as §1

Structure (SMILES) | Percent Inhibition [%]
COc1c(CC=C(C)C)c(O)c2c(=O)c3ccc(O)c(O)c3oc2c1CC=C(C)C [gl-9] | 95

test system: T98G; assay: Cell panel screen (CellTiter-Glo); format: cell-based, human; conditions: T98G (Brain), 20 micromolar, 72 hrs
How it was run: as §1

Structure (SMILES) | Percent Inhibition [%]
COc1c(CC=C(C)C)c(O)c2c(=O)c3ccc(O)c(O)c3oc2c1CC=C(C)C [gl-9] | 98
